We go through one molecule from patent publication US10245272B2, “Transmembrane penetration enhancer” (priority 2010, dated 2019).

A short description of the series: Amount of clonazepam in blood, brain and skin after transdermal application (HPLC). Particulars: rats. How it is done:
In support of another embodiment of the present invention, a supporting experiment was conducted where the backs of 3 white male rats that weighed approximately 150 g. were shaved and the backs of the rats were shaved and washed with lukewarm water and approximately 25 cm^2 of the base of a transmembrane/transdermal penetration enhancer described in Example 14 was administered. The base contained 10 mg of clonazepam and after six hours from the time of the application, the rats were killed and blood, brain and skin were taken from the application area. The amount of clonazepam in the organs and tissues of the killed rats were identified by HPLC method.

Setting [1] is: base of Example 14 with 10 mg clonazepam on approx. 25 cm^2, six hours after application.

Take `O=C1CN=C(c2ccccc2Cl)c2cc([N+](=O)[O-])ccc2N1` [clonazepam]: under setting [1], the “amount of clonazepam in 1 cm^2 of the skin at the application area” value was determined as 0.04 ± 0.002 mg, the “amount of clonazepam in 1 cm^3 of blood” value amounted to 0.043 ± 0.002 mg and the “amount of clonazepam in 1 g of brain” value came to 0.016 ± 0.001 mg. Under “base of Example 14 with 10 mg clonazepam, during 6 hours”, the “amount of penetrated/permeated clonazepam through 25 cm^2 application area” value is listed as 60 % of applied amount.
